# Data reported in PMC4476725 (PLoS Pathogens, 2015).
# Read-outs that look alike come from different tables or passages of the source.
# Key:
# PIV-1 polymerase = PIV-1 polymerase (Human respirovirus 1, UniProt Q8QT26); assay: biochemical; conditions: Parainfluenza virus type-1 polymerase
# QUAD RNP complex = QUAD RNP complex (Human respiratory syncytial virus A, UniProt P28887, A789V/I796V/L795I/M628L); assay type: biochemical
# [1] = target: T1, wild-type RSV L-P RNA polymerase complex (Human respiratory syncytial virus A, UniProt P28887); assay type: biochemical; conditions: Fig 5A
# T1 construct: made in house; host or cells: insect cells
# IAV polymerase = IAV polymerase (Influenza A virus, UniProt P03431); assay: IAV polymerase gel-based assay; assay type: biochemical
# [2] = target: RSV polymerase QUAD mutant (Human respiratory syncytial virus A, UniProt P28887, A789V/I796V/L795I/M628L); assay: Single nucleotide incorporation by recombinant RSV L-P polymerase, QUAD mutant; assay type: biochemical; conditions: recombinant L-P enzymes
# [3] = target: human mitochondrial RNA polymerase (Homo sapiens, UniProt O00411); assay: DdRp assay with human mitochondrial RNA polymerase, single turnover; assay type: biochemical; conditions: 100 μM of each NTP
# Chain of human mitochondrial RNA polymerase (O00411 42-1230): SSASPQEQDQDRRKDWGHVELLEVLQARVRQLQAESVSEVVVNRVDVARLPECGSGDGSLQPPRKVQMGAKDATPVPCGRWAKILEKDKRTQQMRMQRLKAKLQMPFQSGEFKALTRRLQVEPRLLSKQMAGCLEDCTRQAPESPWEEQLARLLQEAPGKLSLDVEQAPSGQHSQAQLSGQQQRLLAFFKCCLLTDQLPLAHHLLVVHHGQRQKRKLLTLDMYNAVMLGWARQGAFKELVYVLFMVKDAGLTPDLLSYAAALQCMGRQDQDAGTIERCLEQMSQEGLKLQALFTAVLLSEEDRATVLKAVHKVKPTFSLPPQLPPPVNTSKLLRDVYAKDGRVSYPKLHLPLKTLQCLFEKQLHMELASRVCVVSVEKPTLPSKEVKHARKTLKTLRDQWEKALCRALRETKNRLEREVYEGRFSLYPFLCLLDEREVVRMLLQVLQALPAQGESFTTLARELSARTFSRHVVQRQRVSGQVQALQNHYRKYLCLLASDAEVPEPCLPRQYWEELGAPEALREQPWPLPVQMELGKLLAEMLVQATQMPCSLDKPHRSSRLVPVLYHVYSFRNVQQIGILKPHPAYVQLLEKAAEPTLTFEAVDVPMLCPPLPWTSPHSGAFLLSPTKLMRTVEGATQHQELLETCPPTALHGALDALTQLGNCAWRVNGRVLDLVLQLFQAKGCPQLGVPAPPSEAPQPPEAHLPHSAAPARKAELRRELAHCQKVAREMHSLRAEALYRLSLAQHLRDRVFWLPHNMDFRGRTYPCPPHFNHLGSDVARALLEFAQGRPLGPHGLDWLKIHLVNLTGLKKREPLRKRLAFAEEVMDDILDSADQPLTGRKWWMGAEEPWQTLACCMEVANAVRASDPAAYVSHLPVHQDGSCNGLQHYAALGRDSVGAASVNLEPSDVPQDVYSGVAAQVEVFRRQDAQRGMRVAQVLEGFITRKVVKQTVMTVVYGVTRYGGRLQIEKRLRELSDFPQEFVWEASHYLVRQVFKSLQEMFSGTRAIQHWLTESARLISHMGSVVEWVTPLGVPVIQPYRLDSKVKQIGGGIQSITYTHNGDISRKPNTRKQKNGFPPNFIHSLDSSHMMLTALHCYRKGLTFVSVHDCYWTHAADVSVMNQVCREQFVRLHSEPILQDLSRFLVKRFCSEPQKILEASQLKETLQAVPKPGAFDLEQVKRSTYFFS
# HCV polymerase = HCV polymerase (Hepatitis C virus genotype 1b, UniProt Q9WMX2); assay: HCV polymerase inhibition assay; assay type: biochemical
# RSV RNP complex = RSV RNP complex (Human respiratory syncytial virus A, UniProt P28887); assay: biochemical; assay type: biochemical
compound,measurement,setting,value
"Nc1ccn([C@@H]2O[C@](CCl)(COP(=O)(O)OP(=O)(O)OP(=O)(O)O)[C@@H](O)[C@H]2F)c(=O)n1 [ALS-8112-TP, 2'-Fluoro-4'-Chloromethyl-Cytidine Triphosphate]",IC50,PIV-1 polymerase,2.3 µM
same,inhibition of RdRp activity of the QUAD RNP complex,QUAD RNP complex,57%
same,loss in inhibition potency compared to the wild-type protein,QUAD RNP complex,145 fold
same,substrate and chain termination profile with recombinant RSV polymerase (in words),[1],both substrates and chain terminators
same,IC50,"IAV polymerase; Influenza virus polymerase, based on a single 100 μM concentration",> 100 µM
same,inhibition at 100 µM,IAV polymerase; at 100 μM,20.5%
same,"increase in discrimination, QUAD vs WT (resistance level)",[2],4.6 fold
same,recognition as substrate by human mitochondrial RNA polymerase (in words),[3],not recognized as a substrate
same,inhibition of HCV polymerase (in words),HCV polymerase; Fig 5B,not HCV polymerase
same,IC50,"HCV polymerase; Hepatitis C virus polymerase, read-out: IC50",> 33 µM
same,IC50,"HCV polymerase; second symbol of RSV / HCV, read-out: HCV polymerase inhibition class (IC50)",> 10 µM
same,inhibition of RSV RNP complex (in words),RSV RNP complex; Fig 5B,efficiently inhibit RSV
same,mode of inhibition of RSV RNP complex,"RSV RNP complex; NTP competition, 1 or 100 μM NTP, 30 μM inhibitor",competitive inhibitor of cytidine monophosphate (CMP) incorporation
same,viral RNA transcription activity inhibited (in words),RSV RNP complex; crude RNP complex from virus-infected cells,inhibited
